Results on four compounds are retold here after patent US5916906A, “Compositions comprising nicotinylalanine and an inhibitor of glycine conjugation or vitamin B6” (priority 1997, dated 1999).

Each structure is given as a SMILES string.

Data set [1] in a line: Plasma nicotinamide, NAL and NAL-X levels by HPLC after i.p. nicotinylalanine with or without ASA in uninfected mice. Format: in vivo, C57BL/6 mice. The conditions noted are these: ASA at 20 and 100 mg/kg added to NAL. As for the experimental part: The concentration of nicotinamide and its major metabolites were determined by comparison of peak area ratios of the unknown versus internal standard (6-methylnicotinamide, Sigma Chemical Company) to the standard curves run in control mouse blood plasma.
Mice were treated with racemic nicotinylalanine alone (400 mg/kg) or in combination with acetyl salicylic acid (ASA) at a dose of either 20 mg/kg or 100 mg/kg body weight. […] Control mice received the vehicle for the drug compositions, being phosphate buffered saline (PBS), at the same volume on the same dose schedule as the drug-treated mice. Chronic dosing was performed daily for two weeks, Monday through Friday, and one group of mice received only a single (acute) dose of nicotinylalanine. All mice were killed two hours after their final dose and blood was collected by cardiac puncture and stored on ice, until centrifugation in a microfuge at 10,000 rpm to obtain plasma.
Concentrations of nicotinamide, nicotinamide-oxide, 1-methyl-nicotinamide, and nicotinylalanine extracted from 90% methanol, dried under N2, and reconstituted in water as above were determined by comparison of the peak area ratios of the unknown vs. the internal standard to the standard curve. Concentrations of the unidentified nicotinylalanine metabolite (NAL-X) were determined in the same way as above, except peaks were compared to the standard curve for known nicotinylalanine. The results are expressed as nanomoles of nicotinamide and nicotinylalanine per ml of plasma (nmol/ml).

For data set [2] the following is noted: humans (Levy 1965); cited from earlier work.
A further data set concerns HIV-1 infected cells. The settings on record: cultures of HIV-1 infected cells (Yamagoe 1991); cited from earlier work.
The conditions of data set [3]: human, in vivo; cited from earlier work.
The conditions of data set [4]: rodents (Shibata 1989); cited from earlier work.
Data set [5] concerns poly (ADP-ribose) synthetase. The settings on record: crude or partially purified enzyme (Banasik 1992); cited from earlier work.
For another data set, the system named is kynureninase. The settings on record: co-factor for kynureninase (Takeuchi and Shibata 1984); cited from earlier work.

Regarding `CC(=O)Oc1ccccc1C(=O)O` [ASA, acetylsalicylic acid, reference compound], in data set [1], the “Effect of added ASA on NAL-dependent nicotinamide plasma levels” value is “increases the NAL-dependent nicotinamide plasma levels in a dose-related manner”. For the same compound, in data set [2], the “Fraction conjugated to form salicyluric acid” value is reported as “up to 75%”.
As for `NC(=O)c1ccccc1` [benzamide], the “Antiviral activity (in words)” value in the data set on HIV-1 infected cells is “significant antiviral activity”.
Consider `NC(=O)c1cccnc1` [nicotinamide], for which the “Antiviral activity (in words)” value with HIV-1 infected cells is given as “significant antiviral activity”. Moreover, in data set [3], the Side effects entry is reported as “without any significant side effects”. The “Fraction converted to nicotinuric acid” value in data set [4] was “approximately 16%”. The “Inhibition of poly (ADP-ribose) synthetase (in words)” value in data set [5] is listed as “effective inhibitors of poly (ADP-ribose) synthetase”.
In the case of `Cc1ncc(COP(=O)(O)O)c(C=O)c1O` [pyridoxal phosphate], the “Rate of conversion of nicotinylalanine to nicotinamide (in words)” value in the data set on kynureninase is “increases the rate of conversion of nicotinylalanine to nicotinamide”.
